Measured values reported in PubChem BioAssay (NCI).
Several values for one entry are separate records, joined by “and”; a condition that tells them apart may be missing. Equal entries are not always repeated.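 Growth conditions: 96-well plates. Treatment: test compound, 48 hours, 5 concentrations. Analysis: linear interpolation between bracketing concentrations; unreached endpoints set to highest concentration. The concentration for 50% growth inhibition is given as GI50. TGI: total growth inhibition.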 Where a SMILES comes first, the peptide text is derived from it. [ ]: non-standard residue; d: D form. Orn = NCCC[CH](N)C(=O)O

What was measured:
Test in all cases: NCI tumour cell line growth inhibition, 48 h
[1] = test system: EKVX NSCLC
[2] = test system: HCT-116 colon
[3] = test system: HCT-15 colon
[4] = test system: HOP-92 NSCLC
[5] = test system: HS 578T breast
[6] = test system: K-562 leukemia
[7] = test system: NCI-H226 lung
[8] = test system: SK-OV-3 ovarian
[9] = test system: U251 CNS
[10] = test system: UACC-257 melanoma

SMILES | GI50 [1] | TGI [1] | GI50 [2] | TGI [2] | GI50 [3] | TGI [3] | GI50 [4] | TGI [4] | GI50 [5] | TGI [5] | GI50 [6] | TGI [6] | GI50 [7] | TGI [7] | GI50 [8] | TGI [8] | GI50 [9] | TGI [9] | GI50 [10] | TGI [10]
CC(C)CC1NC(=O)C(CCCN)NC(=O)C(C(C)C)NC(=O)C2CCCN2C(=O)C(Cc2ccccc2)NC(=O)C(CC(C)C)NC(=O)C(CCCN)NC(=O)C(C(C)C)NC(=O)C2CCCN2C(=O)C(Cc2ccccc2)NC1=O (stereo not drawn) (cyclo(FPV[Orn]LFPV[Orn]L); configuration not given here) | 0.0105 µM and 0.0175 µM | 0.442 µM and 1.23 µM | 0.0102 µM and 0.0167 µM | 0.122 µM and 0.213 µM | 0.213 µM and 0.436 µM | 4.06 µM and 4.7 µM | 0.00661 µM and 0.0126 µM | 0.0204 µM and 0.0545 µM | 0.0166 µM and 0.0453 µM | 0.784 µM and 1.64 µM | < 0.00325 µM | 0.0565 µM | 0.0203 µM and 0.0564 µM | 1.03 µM and 1.92 µM | 0.0108 µM | 0.505 µM and 1.39 µM | < 0.00325 µM | 0.14 µM and 0.117 µM | 0.00872 µM and 0.0145 µM | 0.048 µM and 0.0705 µM
CCCNNC(=O)c1ccc(CNC(=O)/C=C/c2ccccc2)cc1 | 0.311 µM | > 100 µM | 0.0547 µM | 0.527 µM | 0.305 µM | > 39 µM | 0.0821 µM | 0.609 µM | 0.207 µM | > 20.8 µM | 0.0732 µM | > 100 µM | 0.314 µM | 2.58 µM | 0.134 µM | 1.47 µM | 0.198 µM | 1.71 µM | 0.15 µM | 
O=C1/C(=c2\c3ccccc3n3c(=O)c4ccccc4nc23)Nc2ccccc21 |  | > 100 µM |  | > 100 µM |  | > 100 µM |  | > 100 µM |  | > 85.7 µM |  | > 100 µM |  | > 100 µM |  | > 100 µM |  | > 100 µM |  | > 100 µM
NS(=O)(=O)c1ccc(NCc2cnc3ccccc3c2)cc1 |  | > 100 µM |  | > 100 µM |  | > 100 µM |  | > 100 µM |  | > 100 µM |  | > 100 µM |  | > 100 µM |  | > 100 µM |  | > 100 µM |  | > 100 µM
CCNCCNc1cc(C2CCCC2)c(C#N)c2nc3ccccc3n12 | 4.73 µM | 21.5 µM | 1.95 µM | 3.89 µM | 3.07 µM | 12.9 µM | 2.08 µM | 4.4 µM | 3.23 µM | 10.4 µM | 2.49 µM | 5.81 µM | 3.49 µM | 17.5 µM | 3.26 µM | 12.5 µM | 2.21 µM | 4.27 µM | 2.58 µM | 4.74 µM
COc1cc2c(cc1C)NC(=O)/C2=C/c1c(C)nc2sc(C)cn12 | 49.2 µM | > 100 µM | 53.5 µM | > 100 µM | > 100 µM | > 100 µM | 22.1 µM | > 100 µM | 49.8 µM | > 100 µM | 35.3 µM | > 100 µM | 82.8 µM | > 100 µM | > 100 µM | > 100 µM | > 100 µM | > 100 µM | 62.3 µM | > 100 µM
COc1ccc2oc(-c3ccc(Cl)cc3)c(N3CCN(C)CC3)c2c1 | 0.603 µM | 2.47 µM | 1.98 µM | 4.59 µM | 1.62 µM | 3.24 µM | 0.37 µM | 2.78 µM | 1.71 µM | 3.86 µM | 3.38 µM | > 100 µM | 3.16 µM | 14.5 µM | 2.17 µM | 4.99 µM | 1.64 µM | 3.14 µM | 1.68 µM | 3.43 µM
O=C(Nc1ncc(Cc2ccc(Cl)cc2)s1)c1ccc2c(c1)OCCO2 | 0.412 µM | > 100 µM | 0.0419 µM | > 100 µM | 0.0477 µM | > 100 µM | 2.12 µM | > 100 µM | 0.0422 µM | 8.65 µM | 0.0453 µM | > 100 µM | 0.358 µM |  | 0.183 µM | 92.9 µM | 0.0549 µM | > 45.3 µM | 5.8 µM | > 100 µM
COC1(C)Cc2c(c(C)c(O)c3c2C(=O)C=C(Cl)C3=O)O1 (stereo not drawn) |  | > 100 µM |  | > 78 µM |  | > 71.9 µM |  | 36.4 µM |  | > 100 µM |  | 36.8 µM |  | > 100 µM |  | > 100 µM |  | > 100 µM |  | > 69.5 µM
N=c1c2c(=O)n3c(nc2nc2sc4ccc(Cl)cc4n12)-c1ccccc1Sc1ccccc1-3 | 1.42 µM | 8.97 µM | 2.34 µM | 10.3 µM | 2.96 µM | 14.5 µM | 0.762 µM | 6.08 µM | 2.2 µM | 10.1 µM | 1.61 µM | > 100 µM | 2.92 µM | 21.5 µM | 3.7 µM | 25.2 µM | 2.8 µM | 12.6 µM | 3.14 µM | 9.39 µM
COc1ccc2c(c1)N(CCC1CCCCN1C)c1ccccc1S2 (stereo not drawn) |  | 36.5 µM |  | 27.2 µM |  | 27.4 µM |  | 22.6 µM |  | 26.5 µM |  | 18.2 µM |  | 47.8 µM |  | 31 µM |  | 23.8 µM |  | 17.3 µM
COc1ccc(C2SC(C)C(=O)N2NC(=O)C(O)c2ccccc2)cc1 (stereo not drawn) | > 100 µM | > 100 µM | > 100 µM | > 100 µM | > 100 µM | > 100 µM | > 100 µM | > 100 µM | > 100 µM | > 100 µM | > 100 µM | > 100 µM | > 100 µM | > 100 µM | 63.1 µM | > 100 µM | > 100 µM | > 100 µM | > 100 µM | > 100 µM
Cc1cc(NC(=O)C(=O)Cc2nc3ccccc3s2)ccc1Cl |  | > 100 µM |  | > 100 µM |  | > 100 µM |  | > 100 µM |  | > 100 µM |  | > 100 µM |  | > 100 µM |  | > 100 µM |  | > 100 µM |  | > 100 µM
Cn1cc(-c2nc(-c3cn(C)c4ncccc34)cs2)c2cc(F)ccc21 | 1.93 µM | 74.3 µM | 0.775 µM | 41.2 µM | 1.51 µM | > 100 µM | 2.31 µM | 8.14 µM | 5.1 µM | > 100 µM | 0.358 µM | > 100 µM | 2.6 µM | > 100 µM | 2.4 µM | 21.2 µM | 1.55 µM | > 100 µM | 6.33 µM | > 100 µM
